Assay results reported in patent publication US8263579B2, “Anti-inflammatory compounds” (Piramal Healthcare Limited, priority 2011, dated 2012).

Assays:
TNF-α = assay: High throughput screening in LPS stimulated THP-1 cells, TNF-α release by ELISA; type: cell-based
Procedure: (§1) The assay was designed on the basis of the reference, The Journal of Immunology, 1993, 151 (10), 5631-5638, the disclosure of which is incorporated by reference for the teaching of the assay.
(§2) THP-1 (ATCC, USA) cells were cultured in RPMI 1640 (Roswell Park Memorial Institute) culture medium (Gibco BRL, Pasley, UK) containing 100 U/ml penicillin, […] streptomycin (100× solution, Sigma Chemical Co. St Louis, Mo., USA) and 10% fetal bovine serum (Gibco BRL, Pasley, UK). The cells were differentiated into macrophages with phorbol myristate acetate (Sigma, USA) in 96 well culture plates. Following cell plating, various concentrations of the compound of formula I or the compound of formula II or vehicle (0.5% DMSO) were added to each well and the plate was incubated for 30 min at 37° C. Finally, per well, 20 μL of LPS (10 μg/mL stock solution) (Escherchia coli 0127:B8, Sigma Chemical Co., St. Louis, Mo.) was added for a final concentration of 1 μg/mL. Plates were incubated at 37° C. for 24 hours in an atmosphere of 5% CO2. Supernatants were harvested, and assayed for TNF-α and IL-6 by ELISA as described by the manufacturer (BD Biosciences). Percent inhibition of cytokine release compared to the control was calculated. The 50% inhibitory concentration (IC50) values were calculated by a nonlinear regression method.
(§3) Dexamethasone was used as standard.

IL-6 = assay: High throughput screening in LPS stimulated THP-1 cells, IL-6 release by ELISA; type: cell-based
Procedure: as §1, §2, §3

[1] = Homo sapiens, LPS (1 μg/mL) stimulated THP-1 cells differentiated with PMA, 24 hours, ELISA
[2] = preparative HPLC fractions tested by method of Example 7
[3] = Homo sapiens, at 1 μg/ml, LPS stimulated THP-1 cells

SMILES | IC50 (TNF-α; [1]) [µg/mL] | TNF-α inhibition of HPLC fractions (qualitative) (TNF-α; [2]) | IC50 (IL-6; [1]) [µg/mL] | IL-6 inhibition of HPLC fractions (qualitative) (IL-6; [2]) | inhibition at 1 µg/mL (TNF-α; [3]) [%] | inhibition at 1 µg/mL (IL-6; [3]) [%]
CCCCCCCCCCCCO/N=N/OC [Compound of formula II] | 1.5 | exhibited IL-6 and TNF-α inhibition | 1.2 | exhibited IL-6 and TNF-α inhibition | – | –
C[C@@H]1C[C@H]2[C@@H]3CCC4=CC(=O)C=C[C@]4(C)[C@@]3(F)[C@@H](O)C[C@]2(C)[C@@]1(O)C(=O)CO [Dexamethasone, reference compound] | – | – | – | – | 73 | 84
